Some results are limits rather than exact numbers.

For data set [1], the target named is T1, Transmembrane protease serine 6 (Homo sapiens) (UniProt Q8IU80).
T1 sequence (whole entry): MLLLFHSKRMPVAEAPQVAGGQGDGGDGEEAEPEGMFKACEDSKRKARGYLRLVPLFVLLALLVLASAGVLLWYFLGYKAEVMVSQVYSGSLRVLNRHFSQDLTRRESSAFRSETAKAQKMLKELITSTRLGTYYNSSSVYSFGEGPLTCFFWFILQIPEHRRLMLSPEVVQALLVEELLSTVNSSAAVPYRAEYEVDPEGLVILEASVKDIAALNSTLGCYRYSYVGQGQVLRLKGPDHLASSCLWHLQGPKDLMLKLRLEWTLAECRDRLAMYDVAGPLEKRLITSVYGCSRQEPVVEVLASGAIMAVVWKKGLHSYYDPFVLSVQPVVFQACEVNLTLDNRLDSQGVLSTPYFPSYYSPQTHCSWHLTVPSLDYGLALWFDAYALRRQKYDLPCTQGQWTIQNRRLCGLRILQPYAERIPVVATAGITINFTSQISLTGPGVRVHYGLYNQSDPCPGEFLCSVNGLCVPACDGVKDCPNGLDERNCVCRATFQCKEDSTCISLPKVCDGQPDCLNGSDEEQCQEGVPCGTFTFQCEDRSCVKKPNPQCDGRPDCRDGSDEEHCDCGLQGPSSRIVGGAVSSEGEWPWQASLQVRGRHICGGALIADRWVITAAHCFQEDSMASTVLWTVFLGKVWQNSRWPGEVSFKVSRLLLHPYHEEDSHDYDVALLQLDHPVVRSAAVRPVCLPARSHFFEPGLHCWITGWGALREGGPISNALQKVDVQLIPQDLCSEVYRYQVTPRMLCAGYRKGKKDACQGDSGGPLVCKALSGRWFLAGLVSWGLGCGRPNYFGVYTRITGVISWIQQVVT
Nature of the data set: Reversible inhibition of recombinant human C-terminal V5-His-tagged matriptase-2 expressed in Drosophila S2 cells assessed as dissociation half time using Boc-Gln-Ala-ArgAMC as substrate measured for 1200 mins by fluorescence assay.

Data set [2] concerns the target T2, Suppressor of tumorigenicity 14 protein (Homo sapiens, UniProt Q9Y5Y6).
T2 sequence (Q9Y5Y6 whole entry): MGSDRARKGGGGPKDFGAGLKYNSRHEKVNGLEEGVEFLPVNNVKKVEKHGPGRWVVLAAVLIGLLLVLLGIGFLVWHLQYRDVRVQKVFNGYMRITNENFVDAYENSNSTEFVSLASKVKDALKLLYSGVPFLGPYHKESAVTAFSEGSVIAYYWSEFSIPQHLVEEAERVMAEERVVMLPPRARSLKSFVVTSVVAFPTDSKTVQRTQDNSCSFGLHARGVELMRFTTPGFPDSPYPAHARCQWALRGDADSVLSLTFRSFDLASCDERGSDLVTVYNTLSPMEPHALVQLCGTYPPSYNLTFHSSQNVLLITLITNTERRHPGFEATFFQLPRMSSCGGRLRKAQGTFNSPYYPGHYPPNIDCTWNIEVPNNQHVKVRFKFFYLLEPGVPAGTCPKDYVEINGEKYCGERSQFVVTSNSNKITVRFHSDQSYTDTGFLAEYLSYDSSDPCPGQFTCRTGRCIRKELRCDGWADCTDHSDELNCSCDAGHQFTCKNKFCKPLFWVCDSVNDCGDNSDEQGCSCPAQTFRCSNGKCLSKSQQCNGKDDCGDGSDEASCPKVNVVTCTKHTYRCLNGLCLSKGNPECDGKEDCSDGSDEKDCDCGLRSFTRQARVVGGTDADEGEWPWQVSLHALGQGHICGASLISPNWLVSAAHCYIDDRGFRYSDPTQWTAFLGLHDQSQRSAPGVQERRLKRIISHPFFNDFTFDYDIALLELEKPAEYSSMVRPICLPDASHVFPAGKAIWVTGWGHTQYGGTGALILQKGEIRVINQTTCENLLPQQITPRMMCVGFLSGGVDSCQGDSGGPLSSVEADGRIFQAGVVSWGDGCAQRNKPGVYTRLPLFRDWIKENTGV
Description: Inhibition of recombinant human matriptase (596 to 855 residues) expressed in Escherichia coli using Boc-Gln-Ala-ArgAMC as substrate measured for 1200 mins by fluorescence assay

The species named for the next data set is Homo sapiens. Briefly: Selectivity ratio of Ki for recombinant human matriptase (596 to 855 residues) expressed in Escherichia coli to Ki for recombinant human C-terminal V5-His-tagged matriptase-2 expressed in Drosophila S2 cells.
In data set [3] the target is T3, Transmembrane protease serine 6 (Homo sapiens, UniProt Q8IU80).
T3 sequence (Q8IU80 whole entry): T1 sequence (whole entry)
Briefly: Inhibition of recombinant human C-terminal V5-His-tagged matriptase-2 expressed in Drosophila S2 cells using Boc-Gln-Ala-ArgAMC as substrate measured for 1200 mins by fluorescence assay.

Data set [4] is described as follows: Stability in mouse plasma assessed as parent compound remaining after 24 hrs. Type of data set: ADME, cell-free. The following applies: read-out: Stability.

For orientation: Ki means the dissociation constant of the complex between target and ligand, obtained from inhibition or displacement. Turning to `CC(C)[C@H](NC(=O)[C@H](Cc1cscn1)NC(=O)CCc1ccccc1)C(=O)N[C@@H](CCCNC(=N)N)C(=O)c1nc2ccccc2s1`, the T1/2 in data set [1] was determined as 48 min. Besides, the figures for the Ki in data set [2] and in data set [3] were 4 to 12 nM and 0.4 to 1.2 nM, respectively. In the data set filed under Homo sapiens, the Ratio Ki stood at 10. In data set [4], the remaining at 24 h is above 75%.
Take `CC[C@H](NC(=O)[C@H](CCc1ccccc1)NC(=O)CCc1ccccc1)C(=O)N[C@@H](CCCNC(=N)N)C(=O)c1nc2ccccc2s1`: the T1/2 in data set [1] amounted to 18 min. Also, the figures for the Ki in data set [2] and in data set [3] were 20 to 21 nM and 1.5 to 1.6 nM, respectively. Also, the Ratio Ki in the data set listed under Homo sapiens worked out at 13.
For the compound `CC(C)[C@H](NC(=O)C(Cc1ccc(O)cc1)NC(=O)CCc1ccc(O)cc1)C(=O)N[C@@H](CCCNC(=N)N)C(=O)c1nc2ccccc2s1` (single isomer, unassigned), the T1/2 in data set [1] is 24 min. The Ki in data set [2] was in the range of 34 to 38 nM; in data set [3], 1.2 to 2 nM. Besides, in the data set filed under Homo sapiens, the Ratio Ki was determined as 17. Moreover, the remaining at 24 h in data set [4] is 40%.

Values taken from ChEMBL document CHEMBL4007428, “Modulating the selectivity of matriptase-2 inhibitors with unnatural amino acids” (Eur J Med Chem, 2017).
